Laboratory results taken from patent US20250176599A1, “FLAVOR COMPOSITION AND FOOD AND BEVERAGE” (TAKASAGO INTERNATIONAL CORPORATION, priority 2021, published 2025).

What was measured:
[1] = Sensory evaluation of aqueous solution I containing (E)-2-nonenal 1 ppb: off-flavor intensity and masking component intensity; conditions: average panel score
Procedure: (§1) In ion-exchanged water, each degradation component was added to achieve the concentrations listed in Table 1, and aqueous solutions I to VI containing these degradation components were prepared.
(§2) For the aforementioned aqueous solutions containing degradation components, nootkatone was added at the concentrations listed in Table 2 to confirm the intensity of the off-flavor (masking effect) in each sample and the intensity of the masking component itself (the impact on the flavor of the food and/or beverage itself).
(§3) The test was conducted as follows. Eight experienced panelists were selected to conduct a sensory evaluation. The intensity of the off-flavor of the aqueous solution containing the degradation components derived from unsaturated fatty acids, without added masking components, was set as “Evaluation: 4.” The ion-exchanged water free of any degradation components was set as “Evaluation: 0.” The intensity of the off-flavor (masking effect) of each sample was then relatively evaluated according to the following evaluation criteria.
(§4) • Off-flavor is strongly sensed: 4 points • Off-flavor is sensed: 3 points • Off-flavor is slightly sensed: 2 points • Off-flavor is barely sensed: 1 point • Off-flavor is not sensed at all: 0 points
(§5) Also, the intensity of the masking components (impact on the flavor of the food and/or beverage itself) was absolutely evaluated according to the following evaluation criteria.
(§6) • Masking component is strongly sensed: 4 points • Masking component is sensed: 3 points • Masking component is slightly sensed: 2 points • Masking component is barely sensed: 1 point • Masking component is not sensed at all: 0 points

[2] = Sensory evaluation of aqueous solution II containing (E)-2-octenal 10 ppb: off-flavor intensity and masking component intensity; conditions: average panel score
Procedure: as §1, §2, §3, §4, §5, §6

[3] = Sensory evaluation of aqueous solution III containing 1-octen-3-one 1 ppb: off-flavor intensity and masking component intensity; conditions: average panel score
Procedure: as §1, §2, §3, §4, §5, §6

[4] = Sensory evaluation of aqueous solution IV containing 1,5-octadien-3-one 100 ppt: off-flavor intensity and masking component intensity; conditions: aqueous solution IV, average panel score
Procedure: as §1, §2, §3, §4, §5, §6

[5] = Sensory evaluation of aqueous solution V containing 1-octen-3-ol 10 ppb: off-flavor intensity and masking component intensity; conditions: average panel score
Procedure: as §1, §2, §3, §4, §5, §6

[6] = Sensory evaluation of aqueous solution VI containing 1,5-octadien-3-ol 10 ppb: off-flavor intensity and masking component intensity; conditions: aqueous solution VI, average panel score
Procedure: as §1, §2, §3, §4, §5, §6

[7] = Overall conclusion of the sensory evaluation across aqueous solutions I to VI
Procedure: as §1, §2, §3, §4, §5, §6

Structure (SMILES): CC(=O)/C(C)=C/C1C(C)=CCCC1(C)C (centres unmarked) [γ-methyl ionone]
- Masking Component Intensity ([1]; 0.01 ppt added): 0.3
- Off-Flavor Intensity ([1]; 0.01 ppt added): 3.8
- Masking Component Intensity ([1]; 0.1 ppt added): 0.6
- Off-Flavor Intensity ([1]; 0.1 ppt added): 3.4
- Masking Component Intensity ([1]; 1 ppb added): 2.0
- Off-Flavor Intensity ([1]; 1 ppb added): 2.1
- Masking Component Intensity ([1]; 1 ppm added): 4.0
- Off-Flavor Intensity ([1]; 1 ppm added): 0.3
- Masking Component Intensity ([1]; 1 ppt added): 0.8
- Off-Flavor Intensity ([1]; 1 ppt added): 3.1
- Masking Component Intensity ([1]; 10 ppb added): 2.5
- Off-Flavor Intensity ([1]; 10 ppb added): 1.6
- Masking Component Intensity ([1]; 10 ppt added): 1.1
- Off-Flavor Intensity ([1]; 10 ppt added): 2.5
- Masking Component Intensity ([1]; 100 ppb added): 3.5
- Off-Flavor Intensity ([1]; 100 ppb added): 1.0
- Masking Component Intensity ([1]; 100 ppt added): 1.5
- Off-Flavor Intensity ([1]; 100 ppt added): 2.4
- Masking Component Intensity ([2]; 0.01 ppt added): 0.4
- Off-Flavor Intensity ([2]; 0.01 ppt added): 3.3
- Masking Component Intensity ([2]; 0.1 ppt added): 0.5
- Off-Flavor Intensity ([2]; 0.1 ppt added): 3.1
- Masking Component Intensity ([2]; 1 ppb added): 2.1
- Off-Flavor Intensity ([2]; 1 ppb added): 1.5
- Masking Component Intensity ([2]; 1 ppm added): 4.0
- Off-Flavor Intensity ([2]; 1 ppm added): 0.3
- Masking Component Intensity ([2]; 1 ppt added): 0.8
- Off-Flavor Intensity ([2]; 1 ppt added): 2.8
- Masking Component Intensity ([2]; 10 ppb added): 2.8
- Off-Flavor Intensity ([2]; 10 ppb added): 1.1
- Masking Component Intensity ([2]; 10 ppt added): 1.3
- Off-Flavor Intensity ([2]; 10 ppt added): 2.5
- Masking Component Intensity ([2]; 100 ppb added): 3.8
- Off-Flavor Intensity ([2]; 100 ppb added): 0.6
- Masking Component Intensity ([2]; 100 ppt added): 1.5
- Off-Flavor Intensity ([2]; 100 ppt added): 2.0
- Masking Component Intensity ([3]; 0.01 ppt added): 0.3
- Off-Flavor Intensity ([3]; 0.01 ppt added): 3.4
- Masking Component Intensity ([3]; 0.1 ppt added): 0.3
- Off-Flavor Intensity ([3]; 0.1 ppt added): 3.3
- Masking Component Intensity ([3]; 1 ppb added): 1.6
- Off-Flavor Intensity ([3]; 1 ppb added): 2.0
- Masking Component Intensity ([3]; 1 ppm added): 4.0
- Off-Flavor Intensity ([3]; 1 ppm added): 0.3
- Masking Component Intensity ([3]; 1 ppt added): 0.4
- Off-Flavor Intensity ([3]; 1 ppt added): 3.1
- Masking Component Intensity ([3]; 10 ppb added): 2.5
- Off-Flavor Intensity ([3]; 10 ppb added): 1.5
- Masking Component Intensity ([3]; 10 ppt added): 0.6
- Off-Flavor Intensity ([3]; 10 ppt added): 2.8
- Masking Component Intensity ([3]; 100 ppb added): 3.5
- Off-Flavor Intensity ([3]; 100 ppb added): 1.1
- Masking Component Intensity ([3]; 100 ppt added): 0.9
- Off-Flavor Intensity ([3]; 100 ppt added): 2.4
- Masking Component Intensity ([4]; 0.01 ppt added): 0.0
- Off-Flavor Intensity ([4]; 0.01 ppt added): 3.8
- Masking Component Intensity ([4]; 0.1 ppt added): 0.0
- Off-Flavor Intensity ([4]; 0.1 ppt added): 3.5
- Masking Component Intensity ([4]; 1 ppb added): 1.5
- Off-Flavor Intensity ([4]; 1 ppb added): 2.1
- Masking Component Intensity ([4]; 1 ppm added): 4.0
- Off-Flavor Intensity ([4]; 1 ppm added): 0.6
- Masking Component Intensity ([4]; 1 ppt added): 0.3
- Off-Flavor Intensity ([4]; 1 ppt added): 3.4
- Masking Component Intensity ([4]; 10 ppb added): 2.3
- Off-Flavor Intensity ([4]; 10 ppb added): 1.6
- Masking Component Intensity ([4]; 10 ppt added): 0.5
- Off-Flavor Intensity ([4]; 10 ppt added): 3.3
- Masking Component Intensity ([4]; 100 ppb added): 3.4
- Off-Flavor Intensity ([4]; 100 ppb added): 1.0
- Masking Component Intensity ([4]; 100 ppt added): 0.6
- Off-Flavor Intensity ([4]; 100 ppt added): 2.8
- Masking Component Intensity ([5]; 0.01 ppt added): 0.0
- Off-Flavor Intensity ([5]; 0.01 ppt added): 3.5
- Masking Component Intensity ([5]; 0.1 ppt added): 0.4
- Off-Flavor Intensity ([5]; 0.1 ppt added): 3.3
- Masking Component Intensity ([5]; 1 ppb added): 2.3
- Off-Flavor Intensity ([5]; 1 ppb added): 1.9
- Masking Component Intensity ([5]; 1 ppm added): 4.0
- Off-Flavor Intensity ([5]; 1 ppm added): 0.1
- Masking Component Intensity ([5]; 1 ppt added): 0.4
- Off-Flavor Intensity ([5]; 1 ppt added): 3.3
- Masking Component Intensity ([5]; 10 ppb added): 2.9
- Off-Flavor Intensity ([5]; 10 ppb added): 1.5
- Masking Component Intensity ([5]; 10 ppt added): 1.0
- Off-Flavor Intensity ([5]; 10 ppt added): 2.6
- Masking Component Intensity ([5]; 100 ppb added): 3.8
- Off-Flavor Intensity ([5]; 100 ppb added): 0.8
- Masking Component Intensity ([5]; 100 ppt added): 1.4
- Off-Flavor Intensity ([5]; 100 ppt added): 2.1
- Masking Component Intensity ([6]; 0.01 ppt added): 0.4
- Off-Flavor Intensity ([6]; 0.01 ppt added): 3.1
- Masking Component Intensity ([6]; 0.1 ppt added): 0.9
- Off-Flavor Intensity ([6]; 0.1 ppt added): 3.1
- Masking Component Intensity ([6]; 1 ppb added): 1.9
- Off-Flavor Intensity ([6]; 1 ppb added): 1.9
- Masking Component Intensity ([6]; 1 ppm added): 4.0
- Off-Flavor Intensity ([6]; 1 ppm added): 0.5
- Masking Component Intensity ([6]; 1 ppt added): 1.0
- Off-Flavor Intensity ([6]; 1 ppt added): 2.8
- Masking Component Intensity ([6]; 10 ppb added): 2.8
- Off-Flavor Intensity ([6]; 10 ppb added): 1.3
- Masking Component Intensity ([6]; 10 ppt added): 1.3
- Off-Flavor Intensity ([6]; 10 ppt added): 2.4
- Masking Component Intensity ([6]; 100 ppb added): 3.4
- Off-Flavor Intensity ([6]; 100 ppb added): 0.9
- Masking Component Intensity ([6]; 100 ppt added): 1.6
- Off-Flavor Intensity ([6]; 100 ppt added): 2.1
- concentration that masks the off-flavor and does not affect the flavor of the food and/or beverage itself, lower limit [7]: ≥ 1 ppt
- concentration that masks the off-flavor and does not affect the flavor of the food and/or beverage itself, upper limit [7]: ≤ 10 ppb
